# In patent US20110262425A1, “THERAPEUTIC AGENT FOR MLL LEUKEMIA AND MOZ LEUKEMIA OF WHICH MOLECULAR TARGET IS M-CSF RECEPTOR, AND USE THEREOF” (NATIONAL CANCER CENTER, priority 2007, published 2011):
# Entries after “also recorded” stand apart in the source; their conditions may differ. Structures can show the parent of a compound that is named as a salt.
# What was measured:
# Format in all cases: in vivo
# M-CSFR-expressing cells = experiment: Ablation of M-CSFR-expressing cells by AP20187 in MOZ-TIF2-induced AML mice (FKBP-Fas suicide gene transgenic BM cells, secondary transplantation); settings: then 1 mg/kg every three days
# Protocol: FIG. 1 depicts the result of M-CSFR expression in bone marrow cells of MOZ leukemogenesis mice. (A) BM cells from MOZ-TIF2-induced AML mice were analyzed by FACS for expression of GFP and M-CSFR. (B) M-CSFR^high cells and M-CSFR^low/- cells were sorted by flow cytometer. MOZ-TIF2 expression in these cells was investigated by immunoblot analysis using an anti-MOZ antibody. (C, D) Indicated numbers of M-CSFR^high cells (C) and M-CSFR^low/- cells (D) were transplanted into mice irradiated beforehand with a lethal dose of radiation and survival from leukemia onset was investigated. (E) Structure of genes for the M-CSFR promoter, EGFP, the NGFR-FKBP-Fas suicide construct, and activation mechanism of NGFR-FKBP-Fas. In transgenic (Tg) mice, conditional ablation of cells highly expressing M-CSFR can be induced by exposure to an AP20187 dimerizer. (F-I) AML mice were induced by transplantation of BM cells from Tg mice infected with MOZ-TIF2, and 10^5 BM cells from AML Tg mice were secondary transplanted into wild-type mice lethally-irradiated beforehand. The secondary-transplanted mice were exposed to AP20187 seven days after transplantation. Expression of GFP and M-CSFR in BM cells (F, G) and the size of spleens (H) of normal Tg mice (F), and of untreated and AP20187-treated secondary-transplanted mice (G) were analyzed four weeks after transplantation. Leukemia-free survival rate of the untreated and AP20187-treated secondary-transplanted mice were investigated (I).
# In the transgenic mice, expression levels of endogenous M-CSFR were proportional to those of EGFP and FKBP-Fas (FIG. 1F), and conditional ablation of M-CSFR-expressing cells can be induced by injection of the AP20187 dimerizer (Burnett, S. H. et al., J Leukoc Biol (2004) 75: 612-23). c-KIT^+ BM cells of the transgenic mice were infected with the MOZ-TIF2 retrovirus, and transplanted into lethally-irradiated wild-type mice. These mice developed AML about two months after transplantation, and their BM cells (10^5 cells/mouse) were transplanted into secondary recipient mice. […]
# MOZ-TIF2-induced AML = experiment: Effect of Imatinib on MOZ-TIF2-induced AML in mice; settings: Imatinib 100 mg/kg orally twice a day
# Description: (§1) FIG. 10 (A-D) BM cells (10^5 cells) from AML mice with MOZ-TIF2 (A), MLL-AF10 (B), or N-MYC (C) were transplanted into irradiated mice. […] (A-C) show the results of analyzing leukemia-free survival of the mice. (D) depicts the photograph showing the result of analyzing spleen sizes of the MOZ-TIF2-introduced mice three weeks after transplantation.
# MLL-AF10-induced AML = experiment: Effect of Imatinib on MLL-AF10-induced AML in mice; settings: Imatinib 100 mg/kg orally twice a day
# Description: as §1
# N-MYC-induced AML = experiment: Effect of Imatinib on N-MYC-induced AML in mice; settings: Imatinib 100 mg/kg orally twice a day
# Description: as §1
SMILES,"development of AML (leukemia-free survival) (M-CSFR-expressing cells; AP20187 10 mg/kg i.v. daily for 5 days, 5-6 weeks after transplantation)","M-CSFR^high cells in BM (M-CSFR-expressing cells; AP20187 10 mg/kg intravenously daily for 5 days, from seven days after transplantation, three weeks after transplantation)","splenomegaly (M-CSFR-expressing cells; AP20187 10 mg/kg intravenously daily for 5 days, three weeks after transplantation)",MOZ-TIF2-induced splenomegaly (MOZ-TIF2-induced AML; three weeks after transplantation),onset of AML (leukemia-free survival) (MOZ-TIF2-induced AML; MOZ-TIF2),onset of AML (leukemia-free survival) (MLL-AF10-induced AML),progress of AML (leukemia-free survival) (N-MYC-induced AML)
CC[C@H](C(=O)N1CCCC[C@H]1C(=O)O[C@H](CCc1ccc(OC)c(OC)c1)c1cccc(OCC(=O)NCC(CNC(=O)COc2cccc([C@@H](CCc3ccc(OC)c(OC)c3)OC(=O)[C@@H]3CCCCN3C(=O)[C@@H](CC)c3cc(OC)c(OC)c(OC)c3)c2)CN(C)C)c1)c1cc(OC)c(OC)c(OC)c1 [AP20187],"suppressed; also recorded: none of the AP20187-treated mice, developed AML",neither M-CSFR^high cells nor splenomegaly were detected,suppressed; also recorded: neither M-CSFR^high cells nor splenomegaly were detected,,,,
"Cc1ccc(NC(=O)c2ccc(CN3CCN(C)CC3)cc2)cc1Nc1nccc(-c2cccnc2)n1 [Imatinib, Imatinib mesylate]",,,,inhibited,slowed onsets of AML; also recorded: delaying the leukemia onset,slowed onsets of AML; also recorded: delaying the leukemia onset,did not affect the progress
